Values after ≈ are worked out from the molar mass of the structure shown. Values joined by “and” are separate entries in the source; they are usually repeats but may differ in a detail not shown here. Equal values may be shown once.
Columns and labels:
Staphylococcus aureus = experiment: Zone of inhibition, assay plate Staphylococcus aureus; assay type: cell-based; conditions: 25 μl of extract per 5 mm well, Nutrient Agar pH 6.8, incubated overnight at 37° C.
Procedure: Inoculate 10 mL of Tryptic Soy Broth with a loopful of slant culture, Staphylococcus aureus, and place in a stationary rack at 37° C. After 16-18 hour incubation, the Optical Density (OD) of the culture is read @ A600 nm, using a 1:10 dilution. OD should be between 0.1-0.3, and if not adjust with Tryptic Soy Broth. A 40 mL sample of Nutrient Agar, pH 6.8 is inoculated with 90 μl of S. aureus culture and poured into a sterile petri dish. When the agar has solidified, wells (5 mm) are plated using an automated welling device. Wells are inoculated with 25 μl of extract and incubated overnight at 37° C. Zones of inhibition are measured and recorded the following morning.

Enterococcus sp. = experiment: In vitro antibacterial evaluation: minimum inhibitory concentration (MIC), broth dilution method; assay type: cell-based; conditions: broth dilution, 5×10^5 CFU/mL, 18 hours at 35° C.
Outline: (§1)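 Inoculum: 5×10^5 CFU/mL. Range: 64-0.06 μg/mL. Medium: Muller-Hinton II […]; NCCLS M7-A2 broth dilution. Endpoint: lowest concentration inhibiting growth. Strains include methicillin-, penicillin- and/or vancomycin-resistant clinical isolates.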

Escherichia coli = experiment: as above; assay type: cell-based; conditions: 5×10^5 CFU/mL, 18 hours at 35° C.
Outline: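 Using Muller-Hinton II […] and an inoculum of 5×10^5 CFU/mL, antibiotic dilutions from 64 down to 0.06 μg/mL were tested following NCCLS M7-A2. The MIC is the lowest concentration inhibiting growth, including in methicillin-, penicillin- or vancomycin-resistant clinical isolates.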

Staphylococcus sp. = experiment: as above; assay type: cell-based; conditions: for MIC Staphylococcus aureus-SMITH (GC 4543): strain GC 4543; for MIC Staphylococcus haemolyticus (GC 4546): strain GC 4546; for MIC Coagulase Negative Staphylococcus (GC 4547): strain GC 4547; for MIC Coagulase Negative Staphylococcus (GC 4548): strain GC 4548; for MIC Coagulase Negative Staphylococcus (GC 4549): strain GC 4549; for MIC Coagulase Negative Staphylococcus (GC 4551): strain GC 4551; for MIC Coagulase Negative Staphylococcus (GC 6257): strain GC 6257
Outline: as §1

Streptococcus sp. = experiment: as above; assay type: cell-based; conditions: broth dilution, 5×10^5 CFU/mL, 18 hours at 35° C.
Outline: as §1

[1] = system: Enterococcus faecalis (GC 6189), vancomycin resistant strain; experiment: Acute lethal infection in mice (ED50); assay type: in vivo; conditions: female CD-1 mice, intraperitoneal challenge, intravenous dose 30 min. after infection, 7 day survival ratios
Outline: (§2)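 IP bacterial challenge, female CD-1 mice; inoculum lethal to untreated controls in 24-48 hr. IV dosing in saline or 5% dextrose 30 min post-infection, 5 mice/dose. ED50 from 7-day survival, 3 tests pooled.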

[2] = system: Staphylococcus aureus-SMITH (GC 4543); experiment: Acute lethal infection in mice (ED50); assay type: in vivo; conditions: female CD-1 mice, intraperitoneal challenge, intravenous dose 30 min. after infection, 7 day survival ratios
Outline: as §2

[3] = assay type: in vivo; conditions: mice, 20 mg/kg intravenously daily for 9 days, serum on day 10
Procedure: 20-day-old CD-1 mice were divided into a vehicle control group (5 mice) and a treatment group (5 mice). Samples of glycopeptide antibiotics were administered at 20 mg/kg intravenously daily for 9 days. Animals were necropsied on day 10 Sera were analyzed for BUN (blood urea nitrogen), creatinine, AST (aspartic aminotransferase), and ALT (alanine aminotransferase) by routine, standard, automated methods using an Hitachi 747 chemistry analyzer.

[4] = Anatomic pathology (heart and kidney histopathology) in mice; assay type: in vivo, CD-1 mice; conditions: 20 mg/kg intravenously daily for 9 days, microscopic histopathology on day 10
Outline: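 Histopathology on H&E-stained, paraffin-embedded sections, subjectively scored (slight, mild, moderate, marked, severe) relative to untreated controls. Dosing: glycopeptide antibiotics 20 mg/kg intravenously once daily ×9 days in 20-day-old CD-1 mice, n=5 per group including vehicle.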

[5] = broth dilution, 18 hours at 35° C.

CCCCCCC(=O)OC1C(O)C(CO)OC(OC2C(CO)OC(Oc3ccc(CC4NC(=O)C(C(C)c5ccccc5)NC(=O)CNC(=O)C(CO)NC(=O)C(C(O)C5CNC(=N)N5C5OC(CO)C(O)C(O)C5O)NC(=O)C(C(O)C5CNC(=N)N5)NC4=O)cc3)C(O)C2O)C1O (stereo not drawn) [Example 274b, Cyclo[glycyl-β-methylphenylalanyl-O-[4-O-(3-O-heptanoyl-hexopyranosyl)-hexopyranosyl]tyrosyl-3-(2-iminoimidazolidin-4-yl)seryl-3-(3-hexopyranosyl-2-iminoimidazolidin-4-yl)serylseryl]]
Zone of Inhibition vs. S. aureus (Staphylococcus aureus): 10 mm

CCCC(=O)OC1C(O)C(CO)OC(OC2C(CO)OC(Oc3ccc(CC4NC(=O)C(C(C)c5ccccc5)NC(=O)CNC(=O)C(CO)NC(=O)C(C(O)C5CNC(=N)N5C5OC(CO)C(O)C(O)C5O)NC(=O)C(C(O)C5CNC(=N)N5)NC4=O)cc3)C(O)C2O)C1O (stereo not drawn) [Example 272b, Cyclo[glycyl-β-methylphenylalanyl-O-[4-O-(3-O-butanoyl-hexopyranosyl)-hexopyranosyl]tyrosyl-3-(2-iminoimidazolidin-4-yl)seryl-3-(3-hexopyranosyl-2-iminoimidazolidin-4-yl)serylseryl]]
Zone of Inhibition vs. S. aureus (Staphylococcus aureus): 8 mm

CCC(C)CC(=O)OC1C(CO)OC(OC2C(CO)OC(Oc3ccc(CC4NC(=O)C(C(C)c5ccccc5)NC(=O)CNC(=O)C(CO)NC(=O)C(C(O)C5CNC(=N)N5C5OC(CO)C(O)C(O)C5O)NC(=O)C(C(O)C5CNC(=N)N5)NC4=O)cc3)C(O)C2O)C(O)C1O (stereo not drawn) [Example 271c, Cyclo[glycyl-β-methylphenylalanyl-O-[4-O-[4-O-(3-methylpentanoyl)hexopyranosyl]-hexopyranosyl]tyrosyl-3-(2-iminoimidazolidin-4-yl)seryl-3-(3-hexopyranosyl-2-iminoimidazolidin-4-yl)serylseryl]]
Zone of Inhibition vs. S. aureus (Staphylococcus aureus): 12 mm

CCCCCCC(=O)OC1C(OC2C(CO)OC(Oc3ccc(CC4NC(=O)C(C(C)c5ccccc5)NC(=O)CNC(=O)C(CO)NC(=O)C(C(O)C5CNC(=N)N5C5OC(CO)C(O)C(O)C5O)NC(=O)C(C(O)C5CNC(=N)N5)NC4=O)cc3)C(O)C2O)OC(CO)C(O)C1O (stereo not drawn) [Example 274a, Cyclo[glycyl-β-methylphenylalanyl-O-[4-O-(2-O-heptanoyl-hexopyranosyl)-hexopyranosyl]tyrosyl-3-(2-iminoimidazolidin-4-yl)seryl-3-(3-hexopyranosyl-2-iminoimidazolidin-4-yl)serylseryl]]
Zone of Inhibition vs. S. aureus (Staphylococcus aureus): 9 mm

CC(c1ccccc1)C1NC(=O)CNC(=O)C(CO)NC(=O)C(C(O)C2CNC(=N)N2C2OC(CO)C(O)C(O)C2O)NC(=O)C(C(O)C2CNC(=N)N2)NC(=O)C(Cc2ccc(OC3OC(CO)C(OC4OC5COC(Cc6ccccc6)OC5C(O)C4O)C(O)C3O)cc2)NC1=O (stereo not drawn) [Example 102, Cyclo[glycyl-β-methylphenylalanyl-O-[4-O-(4,6-O-phenethylidenehexopyranosyl)-hexopyranosyl]tyrosyl-3-(2-iminoimidazoliclin-4-yl)seryl-3-(3-hexopyranosyl-2-iminoimidazolidin-4-yl)serylseryl]]
MIC Enterococccus avium (GC 4558) (Enterococcus sp.): 2 to 4 µg/mL
MIC Enterococccus faecalis (ATCC 29212) (Enterococcus sp.): 2 to 4 µg/mL
MIC Enterococccus faecalis (GC 2691) (Enterococcus sp.): 2 to 4 µg/mL
MIC Enterococccus faecalis (GC 3059) (Enterococcus sp.): 2 to 4 µg/mL
MIC Enterococccus faecalis (GC 4552) (Enterococcus sp.): 2 to 4 µg/mL
MIC Enterococccus faecalis (GC 4553) (Enterococcus sp.): 2 to 4 µg/mL
MIC Enterococccus faecalis (GC 4554) (Enterococcus sp.): 2 to 4 µg/mL
MIC Enterococccus faecalis (GC 6189) (Enterococcus sp.): 2 to 4 µg/mL
MIC Enterococccus faecium (GC 2243) (Enterococcus sp.): 2 to 4 µg/mL
MIC Enterococccus faecium (GC 4556) (Enterococcus sp.): 2 to 4 µg/mL
MIC Enterococccus faecium (GC 4557) (Enterococcus sp.): 1 to 2 µg/mL
MIC Enterococcus faecalis (GC 2242) (Enterococcus sp.): 2 to 4 µg/mL
MIC Escherichia coli (GC 4560) (Escherichia coli): 0.5 to 1 µg/mL
MIC Staphylococcus aureus (ATCC 29213) (Staphylococcus sp.; strain ATCC 29213): 1 to 2 µg/mL
MIC Staphylococcus aureus (GC 1131) (Staphylococcus sp.; strain GC 1131): 2 µg/mL (≈ 1.43 µM)
MIC Staphylococcus aureus (GC 3051) (Staphylococcus sp.; strain GC 3051): 1 µg/mL (≈ 0.716 µM)
MIC Staphylococcus aureus (GC 3053) (Staphylococcus sp.; strain GC 3053): 1 to 2 µg/mL
MIC Staphylococcus aureus (GC 4541) (Staphylococcus sp.; strain GC 4541): 1 to 2 µg/mL
MIC Staphylococcus aureus (GC 4542) (Staphylococcus sp.; strain GC 4542): 0.5 to 1 µg/mL
MIC Staphylococcus aureus-SMITH (GC 4543) (Staphylococcus sp.; 18 hours at 35° C.): 0.5 to 1 µg/mL
MIC Staphylococcus aureus-SMITH (GC 4543) (Staphylococcus sp.; [5]): 0.5 to 1 µg/mL
MIC Staphylococcus aureus (GC 4544) (Staphylococcus sp.; strain GC 4544): 1 to 2 µg/mL
MIC Staphylococcus aureus (GC 4545) (Staphylococcus sp.; strain GC 4545): 0.5 to 1 µg/mL
MIC Staphylococcus haemolyticus (GC 4546) (Staphylococcus sp.): 0.5 to 1 µg/mL
MIC Staphylococcus haemolyticus (GC 4546) (Staphylococcus sp.; [5]): 0.5 to 1 µg/mL
MIC Coagulase Negative Staphylococcus (GC 4547) (Staphylococcus sp.): 1 µg/mL (≈ 0.716 µM)
MIC Coagulase Negative Staphylococcus (GC 4547) (Staphylococcus sp.; [5]): 1 µg/mL (≈ 0.716 µM)
MIC Coagulase Negative Staphylococcus (GC 4548) (Staphylococcus sp.): 0.5 to 1 µg/mL
MIC Coagulase Negative Staphylococcus (GC 4548) (Staphylococcus sp.; [5]): 0.5 to 1 µg/mL
MIC Coagulase Negative Staphylococcus (GC 4549) (Staphylococcus sp.): 0.5 to 1 µg/mL
MIC Coagulase Negative Staphylococcus (GC 4549) (Staphylococcus sp.; [5]): 0.5 to 1 µg/mL
MIC Coagulase Negative Staphylococcus (GC 4551) (Staphylococcus sp.): 1 to 2 µg/mL
MIC Coagulase Negative Staphylococcus (GC 4551) (Staphylococcus sp.; [5]): 1 to 2 µg/mL
MIC Coagulase Negative Staphylococcus (GC 6257) (Staphylococcus sp.): 0.5 µg/mL (≈ 0.358 µM)
MIC Coagulase Negative Staphylococcus (GC 6257) (Staphylococcus sp.; [5]): 0.5 µg/mL (≈ 0.358 µM)
MIC Streptococcus pneumoniae (GC 1894) (Streptococcus sp.): <0.06 µg/mL
MIC Streptococcus pneumonine (ATCC 6301) (Streptococcus sp.): <0.06 µg/mL
median effective dose (ED50), Enterococcus faecalis (GC 6189) [1]: 1.04 mg/kg
median effective dose (ED50), Staphylococcus aureus-SMITH (GC 4543) [2]: 0.23-0.43
Clinical Chemistry (Day 10) % of Control, AST [3]: +340%
Clinical Chemistry (Day 10) % of Control, Creatinine [3]: +100%
Anatomical Pathology (Day 10), Heart [4]: +++
Anatomical Pathology (Day 10), Kidney [4]: +++

CCCCCC(=O)OC1C(O)C(CO)OC(OC2C(CO)OC(Oc3ccc(CC4NC(=O)C(C(C)c5ccccc5)NC(=O)CNC(=O)C(CO)NC(=O)C(C(O)C5CNC(=N)N5C5OC(CO)C(O)C(O)C5O)NC(=O)C(C(O)C5CNC(=N)N5)NC4=O)cc3)C(O)C2O)C1O (stereo not shown) [Example 273b]
Zone of Inhibition vs. S. aureus (Staphylococcus aureus): 9 mm and 8 mm

CC(C)CCC(=O)OC1C(CO)OC(OC2C(CO)OC(Oc3ccc(CC4NC(=O)C(C(C)c5ccccc5)NC(=O)CNC(=O)C(CO)NC(=O)C(C(O)C5CNC(=N)N5C5OC(CO)C(O)C(O)C5O)NC(=O)C(C(O)C5CNC(=N)N5)NC4=O)cc3)C(O)C2O)C(O)C1O (stereo not drawn) [Example 270c, Cyclo[glycyl-β-methylphenylalanyl-O-[4-O-[4-O-(4-methylpentanoyl)hexopyranosyl]-hexopyranosyl]tyrosyl-3-(2-iminoimidazolidin-4-yl)seryl-3-(3-hexopyranosyl-2-iminoimidazolidin-4-yl)serylseryl]]
Zone of Inhibition vs. S. aureus (Staphylococcus aureus): 11 mm
